Data on two compounds can be found in US7259185B2 (priority 2005, dated 2007).

Where “and” joins values, the source holds several entries; their conditions need not be identical. Equal values may be shown once. Entries after “also recorded” stand apart in the source; their conditions may differ. Read-outs that look alike come from different tables or passages of the source.

The conditions of data set [1]: in vivo; cited from earlier work.
For data set [2] the following is noted: pH buffer of pH between 8 and 9, room temperature. An excerpt:
In a more preferred embodiment, pH of about 8 to 9, is provided. For example, a buffer close to a pH of about 8.3 can be used.

For data set [3] the following is noted: for Color change: 50° C.
The format of data set [4] is physicochemical. Particulars: 6 mg dose, no pepsin, after 24 hours. The method, then:
A 250 mL volumetric flask was used to simulate the capacity of stomach gastric volume, and a pH 1.5 HCl buffer (0.8% NaCl, 0.04% CaCl2) was used for the simulated gastric fluid (SGF).

The conditions of data set [5]: 2 mg/mL in pH 7 phosphate buffer (100 mM), RT.
The conditions of data set [6]: pH 9 carbonate buffer, after approximately 1 week at 50° C.
The conditions of data set [7]: buffer at pH 7, glycerin increased to 35% by volume.

Take `CC(=O)CC(c1ccccc1)c1c(O)c2ccccc2oc1=O` (racemic) [warfarin]: the “apparent Vd” value in data set [1] was 0.13 L/kg.

As to `CC(=O)CC(c1ccccc1)c1c([O-])c2ccccc2oc1=O.[Na+]` (stereo not shown) [warfarin sodium, 4-hydroxy-3-(3-oxo-1-phenylbutyl)-2H-1-benzopyran-2one sodium salt], in data set [2], the precipitation result is given as “free of precipitation for at least one month”. Besides, the Color change entry in data set [3] (1:1 mixture with ethanol, pH 8 buffer) was “No color change”; in data set [3] (1:1 mixture with glycerin, pH 8 buffer), “No color change”; in data set [3] (Phosphate buffer pH 8 alone) it was “Light yellow”; in data set [3] (pH 8 buffer with Liquid sugar (50% v/v), sodium salt), “slight yellow color change”; in data set [3] (pH 8 buffer with Mannitol (5% w/v), sodium salt) it was “slight yellow color change; also recorded: Light yellow”; in data set [3] (pH 8 buffer with Saccharin (0.5% w/v), sodium salt) it was “slight yellow color change; also recorded: Light yellow”. Also, the Color change entry in data set [3] (pH 8 buffer with Sorbitol (50% v/v), sodium salt) is on record as “slight yellow color change; also recorded: Light yellow”; in data set [6], “slight yellowing”. The “% degradation of warfarin sodium” value in data set [3] (Phosphate buffer pH 8 alone, 1 month at 50° C.) was 1.4%; in data set [3] (pH 8 buffer with Liquid sugar (50% v/v), after 312 hr at 50° C.), 2.4 (after 312 hr) %; in data set [3] (pH 8 buffer with Mannitol (5% w/v), after 384 hr at 50° C.), 1.9 (after 384 hr) %; in data set [3] (pH 8 buffer with Saccharin (0.5% w/v), 1 month at 50° C.), 3.3%; in data set [3] (pH 8 buffer with Sorbitol (50% v/v), 1 month at 50° C.), 2.9%; in data set [3] (pH 8 buffer with TWEEN 80 (0.5% v/v), 1 month at 50° C.), 5.1%. For the same compound, in data set [4], the “precipitation of warfarin sodium in SGF” value is “precipitate out of solution”. The Warfarin concentration is reported as 1.846 mg/mL in data set [5] (time 0.017 hr); 1.819 mg/mL in data set [5] (time 0.083 hr); 1.796 mg/mL in data set [5] (time 0.167 hr); 1.847 mg/mL in data set [5] (time 0.333 hr); 1.844 mg/mL in data set [5] (time 0.5 hr); 1.8765 mg/mL in data set [5] (time 1 hr). Also, the Warfarin concentration worked out at 1.858 mg/mL in data set [5] (time 3 hr); 1.804 mg/mL in data set [5] (time 5 hr); 1.822 mg/mL in data set [5] (time 10 hr); 2.0099 mg/mL in data set [5] (time 13.5 hr); 1.97 mg/mL in data set [5] (time 17.25 hr); 1.113 mg/mL in data set [5] (time 48 hr). Also, the Warfarin concentration in data set [5] (time 192 hr, sodium salt) is 0.357 mg/mL and 0.362 mg/mL. For the same compound, the precipitation of warfarin result in data set [7] is on record as “prevents precipitation”.
